From the OligoGym collection come the findings set out here.

HELM strings list units from the 5' end as sugar, base in round brackets, then linkage (d deoxyribose, r ribose, m 2'-O-methyl, p phosphodiester). Strings are as the collection lists them; they lack the last nucleoside at the 3' end of the tested compound. [moe] = 2'-O-(2-methoxyethyl) (MOE); [sp] = phosphorothioate linkage; [m5C] = 5-methylcytosine

The target in this data set is UBE3A-ATS. Nature of the data set: mouse, dose not given. The following applies: ASO.

Substance “RNA1{[moe]([m5C])[sp].[moe](A)p.[moe](T)p.[moe](T)p.[moe](A)p.d(T)[sp].d(T)[sp].d([m5C])[sp].d(T)[sp].d([m5C])[sp].d(T)[sp].d(A)[sp].d(G)[sp].d(T)[sp].d(G)[sp].[moe]([m5C])p.[moe]([m5C])p.[moe](T)[sp].[moe](A)}$$$$ (last 3' nucleoside missing)” showed a 3 h FOB score of 4 score 0-7.

As for “RNA1{[moe]([m5C])[sp].[moe](A)p.[moe](T)p.[moe](T)p.[moe](G)p.d(G)[sp].d([m5C])[sp].d(T)[sp].d(T)[sp].d([m5C])[sp].d(A)[sp].d(T)[sp].d(A)[sp].d(T)[sp].d(T)[sp].[moe](T)p.[moe]([m5C])p.[moe](T)[sp].[moe]([m5C])}$$$$ (last 3' nucleoside missing)”, the 3 h FOB score is 0 score 0-7.

For “RNA1{[moe]([m5C])[sp].[moe](A)p.[moe](T)p.[moe]([m5C])p.[moe](A)p.d(T)[sp].d(G)[sp].d(A)[sp].d(T)[sp].d([m5C])[sp].d(T)[sp].d(T)[sp].d(G)[sp].d(G)[sp].d(T)[sp].[moe](A)p.[moe](A)p.[moe](G)[sp].[moe](G)}$$$$ (last 3' nucleoside missing)”, the 3 h FOB score amounted to 3 score 0-7.

As for “RNA1{[moe]([m5C])[sp].[moe](A)p.[moe](T)p.[moe]([m5C])p.[moe](T)p.d([m5C])[sp].d(G)[sp].d(G)[sp].d(G)[sp].d(T)[sp].d(A)[sp].d(T)[sp].d(A)[sp].d(T)[sp].d(A)[sp].[moe](A)p.[moe](A)p.[moe](T)[sp].[moe](T)}$$$$ (last 3' nucleoside missing)”, the 3 h FOB score was 2 score 0-7.

“RNA1{[moe]([m5C])[sp].[moe](A)p.[moe]([m5C])p.[moe](A)p.[moe](T)p.d(T)[sp].d(A)[sp].d([m5C])[sp].d([m5C])[sp].d([m5C])[sp].d(A)[sp].d(T)[sp].d([m5C])[sp].d([m5C])[sp].d(G)[sp].[moe](T)p.[moe](T)p.[moe]([m5C])[sp].[moe](T)}$$$$ (last 3' nucleoside missing)” came in with a 3 h FOB score of 0 score 0-7.

“RNA1{[moe]([m5C])[sp].[moe](A)p.[moe]([m5C])p.[moe](T)p.[moe](G)p.d(A)[sp].d(G)[sp].d(T)[sp].d(T)[sp].d(T)[sp].d(T)[sp].d(T)[sp].d(G)[sp].d(T)[sp].d(A)[sp].[moe](G)p.[moe](T)p.[moe](T)[sp].[moe]([m5C])}$$$$ (last 3' nucleoside missing)”: the 3 h FOB score came out at 4 score 0-7.

Turning to “RNA1{[moe]([m5C])[sp].[moe](A)p.[moe]([m5C])p.[moe](T)p.[moe]([m5C])p.d(A)[sp].d(T)[sp].d(T)[sp].d(T)[sp].d(T)[sp].d(G)[sp].d(T)[sp].d(T)[sp].d([m5C])[sp].d(A)[sp].[moe](G)p.[moe]([m5C])p.[moe](T)[sp].[moe](T)}$$$$ (last 3' nucleoside missing)”, the 3 h FOB score amounted to 3 score 0-7.

As for “RNA1{[moe]([m5C])[sp].[moe](A)p.[moe]([m5C])p.[moe](T)p.[moe]([m5C])p.d(T)[sp].d(A)[sp].d(T)[sp].d(A)[sp].d(G)[sp].d(G)[sp].d(T)[sp].d(T)[sp].d([m5C])[sp].d(A)[sp].[moe](A)p.[moe](G)p.[moe]([m5C])[sp].[moe](A)}$$$$ (last 3' nucleoside missing)”, the 3 h FOB score was found to be 4 score 0-7.

The substance “RNA1{[moe]([m5C])[sp].[moe](A)p.[moe]([m5C])p.[moe]([m5C])p.[moe](T)p.d(A)[sp].d(G)[sp].d(G)[sp].d([m5C])[sp].d(T)[sp].d(G)[sp].d(G)[sp].d(G)[sp].d([m5C])[sp].d([m5C])[sp].[moe](T)p.[moe]([m5C])p.[moe](A)[sp].[moe](G)}$$$$ (last 3' nucleoside missing)” registered a 3 h FOB score of 3.5 score 0-7.

“RNA1{[moe]([m5C])[sp].[moe](G)p.[moe](G)p.[moe](A)p.[moe]([m5C])p.d(A)[sp].d(G)[sp].d(T)[sp].d(G)[sp].d(T)[sp].d(T)[sp].d(G)[sp].d([m5C])[sp].d(T)[sp].d(G)[sp].[moe](T)p.[moe](T)p.[moe](A)[sp].[moe](G)}$$$$ (last 3' nucleoside missing)”: the 3 h FOB score was found to be 6 score 0-7.

For “RNA1{[moe]([m5C])[sp].[moe](G)p.[moe](G)p.[moe](G)p.[moe]([m5C])p.d(T)[sp].d(A)[sp].d(T)[sp].d(G)[sp].d(T)[sp].d(G)[sp].d(A)[sp].d(G)[sp].d(A)[sp].d(T)[sp].[moe](A)p.[moe](A)p.[moe](T)[sp].[moe](T)}$$$$ (last 3' nucleoside missing)”, the 3 h FOB score turned out to be 4 score 0-7.

As to “RNA1{[moe]([m5C])[sp].[moe](G)p.[moe](T)p.[moe](A)p.[moe](T)p.d(T)[sp].d(G)[sp].d(G)[sp].d(A)[sp].d([m5C])[sp].d([m5C])[sp].d(T)[sp].d(T)[sp].d(T)[sp].d([m5C])[sp].[moe](A)p.[moe](A)p.[moe](T)[sp].[moe](G)}$$$$ (last 3' nucleoside missing)”, the 3 h FOB score came out at 3.5 score 0-7.

The substance “RNA1{[moe]([m5C])[sp].[moe](G)p.[moe](T)p.[moe](G)[sp].d(A)[sp].d(G)[sp].d([m5C])[sp].d(T)[sp].d(A)[sp].d(T)[sp].d([m5C])[sp].d(T)[sp].[moe](G)p.[moe](T)p.[moe](A)p.[moe]([m5C])[sp].[moe](A)}$$$$ (last 3' nucleoside missing)” registered a 3 h FOB score of 1 score 0-7.

Substance “RNA1{[moe]([m5C])[sp].[moe](G)p.[moe](T)p.[moe](G)p.[moe](A)[sp].d(G)[sp].d([m5C])[sp].d(T)[sp].d(A)[sp].d(T)[sp].d([m5C])[sp].d(T)[sp].d(G)[sp].[moe](T)p.[moe](A)p.[moe]([m5C])[sp].[moe](A)}$$$$ (last 3' nucleoside missing)” came in with a 3 h FOB score of 1.3 score 0-7.

The substance “RNA1{[moe]([m5C])[sp].[moe](G)p.[moe](T)p.[moe](G)p.[moe](A)p.[moe](G)[sp].d([m5C])[sp].d(T)[sp].d(A)[sp].d(T)[sp].d([m5C])[sp].d(T)[sp].d(G)[sp].d(T)[sp].[moe](A)p.[moe]([m5C])[sp].[moe](A)}$$$$ (last 3' nucleoside missing)” registered a 3 h FOB score of 2 score 0-7.

As to “RNA1{[moe]([m5C])[sp].[moe](G)p.[moe](T)p.[moe](G)p.[moe](A)p.[moe](G)p.d([m5C])[sp].d(T)[sp].d(A)[sp].d(T)[sp].d([m5C])[sp].d(T)[sp].d(G)[sp].d(T)[sp].d(A)[sp].d([m5C])[sp].[moe](A)p.[moe](A)[sp].[moe](A)}$$$$ (last 3' nucleoside missing)”, the 3 h FOB score was found to be 1 score 0-7.

For “RNA1{[moe]([m5C])[sp].[moe](G)p.[moe](T)p.[moe](G)p.[moe](A)p.d(G)[sp].d([m5C])[sp].d(T)[sp].d(A)[sp].d(T)[sp].d([m5C])[sp].d(T)[sp].d(G)[sp].d(T)[sp].d(A)[sp].[moe]([m5C])p.[moe](A)p.[moe](A)[sp].[moe](A)}$$$$ (last 3' nucleoside missing)”, the 3 h FOB score was 3.2 score 0-7.

For the substance “RNA1{[moe]([m5C])[sp].[moe](G)p.[moe](T)p.[moe](G)p.d(A)[sp].d(G)[sp].d([m5C])[sp].d(T)[sp].d(A)[sp].d(T)[sp].d([m5C])[sp].d(T)[sp].d(G)[sp].d(T)[sp].[moe](A)p.[moe]([m5C])p.[moe](A)p.[moe](A)[sp].[moe](A)}$$$$ (last 3' nucleoside missing)”, the 3 h FOB score was 4 score 0-7.

As for “RNA1{[moe]([m5C])[sp].[moe](G)p.[moe](T)p.[moe](T)p.[moe](A)p.d(T)[sp].d(T)[sp].d([m5C])[sp].d(A)[sp].d(G)[sp].d(T)[sp].d([m5C])[sp].d(T)[sp].d([m5C])[sp].d(A)[sp].[moe](G)p.[moe](G)p.[moe](G)[sp].[moe](A)}$$$$ (last 3' nucleoside missing)”, the 3 h FOB score was 4.5 score 0-7.

With “RNA1{[moe]([m5C])[sp].[moe](G)p.[moe](T)p.[moe]([m5C])p.[moe](T)p.d(T)[sp].d([m5C])[sp].d([m5C])[sp].d([m5C])[sp].d(G)[sp].d([m5C])[sp].d(A)[sp].d([m5C])[sp].d([m5C])[sp].d(A)[sp].[moe](T)p.[moe](G)p.[moe]([m5C])[sp].[moe](A)}$$$$ (last 3' nucleoside missing)”, the 3 h FOB score was determined as 2 score 0-7.

Turning to “RNA1{[moe]([m5C])[sp].[moe](G)p.[moe]([m5C])p.[moe](A)[sp].d(A)[sp].d(T)[sp].d(G)[sp].d(T)[sp].d(A)[sp].d(T)[sp].d([m5C])[sp].d(A)[sp].[moe](G)p.[moe](G)p.[moe]([m5C])p.[moe](A)[sp].[moe](A)}$$$$ (last 3' nucleoside missing)”, the 3 h FOB score is 1 score 0-7.

Regarding “RNA1{[moe]([m5C])[sp].[moe](G)p.[moe]([m5C])p.[moe](A)p.[moe](A)[sp].d(T)[sp].d(G)[sp].d(T)[sp].d(A)[sp].d(T)[sp].d([m5C])[sp].d(A)[sp].d(G)[sp].[moe](G)p.[moe]([m5C])p.[moe](A)[sp].[moe](A)}$$$$ (last 3' nucleoside missing)”, the 3 h FOB score worked out at 2 score 0-7.

“RNA1{[moe]([m5C])[sp].[moe](G)p.[moe]([m5C])p.[moe](A)p.[moe](A)p.[moe](T)[sp].d(G)[sp].d(T)[sp].d(A)[sp].d(T)[sp].d([m5C])[sp].d(A)[sp].d(G)[sp].d(G)[sp].[moe]([m5C])p.[moe](A)[sp].[moe](A)}$$$$ (last 3' nucleoside missing)” showed a 3 h FOB score of 3 score 0-7.

Substance “RNA1{[moe]([m5C])[sp].[moe](G)p.[moe]([m5C])p.[moe](A)p.[moe](A)p.d(T)[sp].d(G)[sp].d(T)[sp].d(A)[sp].d(T)[sp].d([m5C])[sp].d(A)[sp].d(G)[sp].d(G)[sp].d([m5C])[sp].[moe](A)p.[moe](A)p.[moe]([m5C])[sp].[moe](A)}$$$$ (last 3' nucleoside missing)” yielded a 3 h FOB score of 4 score 0-7.

With “RNA1{[moe]([m5C])[sp].[moe](T)p.[moe](A)p.[moe](A)p.[moe](A)p.d(A)[sp].d(T)[sp].d([m5C])[sp].d([m5C])[sp].d(A)[sp].d(T)[sp].d(T)[sp].d(T)[sp].d(G)[sp].d(T)[sp].[moe]([m5C])p.[moe]([m5C])p.[moe](A)[sp].[moe](G)}$$$$ (last 3' nucleoside missing)”, the 3 h FOB score came to 3.3 score 0-7.

On to “RNA1{[moe]([m5C])[sp].[moe](T)p.[moe](A)p.[moe](A)p.[moe]([m5C])p.d(T)[sp].d(T)[sp].d(T)[sp].d(A)[sp].d(T)[sp].d(A)[sp].d(G)[sp].d(T)[sp].d(G)[sp].d(T)[sp].[moe](G)p.[moe](G)p.[moe](A)[sp].[moe](T)}$$$$ (last 3' nucleoside missing)”, for which the 3 h FOB score was 5 score 0-7.
